Numbered stars: 1 amine (or outer) side, 2 acyl side, 3 side chain; on linkers, the order of the positions; unused ones are H or OH. Square brackets hold non-standard residues; d marks the D form. Peptide text beside a SMILES is read from it. * marks the point of attachment. 5FAM = O=C1OC2(c3ccc(O)cc3Oc3cc(O)ccc32)c2ccc(C(=O)*)cc21; X1 = CO[C@H]1CC(N[*:1])(C(=O)[*:2])C[C@@H]1OC; αMeL = CC(C)C[C@](C)(N)C(=O)O; Ac5c = NC1(C(=O)O)CCCC1
How the values were obtained:
CHO-K1 cells [1] = test: Cellular uptake of CF-labeled peptides into CHO-K1 cells (flow cytometry); type: cell-based; conditions: n = 3; for cellular uptake, course over incubation time: CHO-K1, 1 µM peptide, 2, 6 and 24 h, compared with peptides of only natural α-amino acids; for cellular uptake, rank among the peptides containing dAAs / cellular uptake compared with Arg peptide: CHO-K1, 1 µM peptide; for cellular uptake, rank among the peptides containing dAAs: 2-24 h; for cellular uptake compared with Arg peptide: DMEM 10% FBS
Procedure: Cellular uptake of peptides was assessed against HeLa (Fig. 5a) and CHO-K1 cells (Fig. 5b) at a concentration of 1 µM and various incubation times (2, 6, and 24 h). […] Not only stabilities against protease digestion but also other factors might contribute to prolongation of the cell-penetrating ability of peptides. […] The number of Arg residues in Arg-rich peptides is very important for their cell-penetrating ability, and six Arg are not enough. […] Substitution of Arg in Arg peptide with Ac5c, Ac5c^dOM, or (αMe)Leu positively affected its cell-penetrating ability compared with Aib. In comparison, among the peptides containing dAAs, (αMe)Leu peptide was the best for HeLa cell, Ac5c peptide was the best for CHO-K1 cell, and Ac5c^dOM peptide was the worst for both cell types (Fig. 5). Although the best peptides were different depending on cell type, the worst peptide was same for both cell types. […] Taken together, a stable helical structure by introducing dAAs into Arg-rich peptide enhanced their cell-penetrating abilities.
HeLa or CHO-K1 cells were seeded on 24-well culture plates (100,000 cells/well) and incubated in 400 µL of DMEM containing 10% FBS. The medium was then replaced with fresh medium, and a peptide solution was added to each well at a concentration of 1 µM. After each incubation time, the medium was removed and cells were washed with ice-cold PBS with heparin (20 units/mL) and trypsinized. After the addition of medium containing 10% FBS, fluorescence intensity was detected and acquired using an On-chip Flow (On-chip Biotechnologies Co., Ltd, Tokyo, Japan). The results are presented as a mean and standard deviation obtained from 3 samples.

[2] = Resistance to protease digestion with trypsin; type: in vitro ADME; conditions: 10 µM peptide in 2.5 × 10^−6 w/v% trypsin/PBS, 37 °C, RP-HPLC, α-CHCA internal standard, read-out: intact peptide after incubation with trypsin
Source text: (§1) Next, we examined the stability of peptides against protease digestion using trypsin (Fig. 4a) and pronase (Fig. 4b). One of the advantages of peptide foldamers containing dAAs is their high resistance to degradation by proteases[38]–[40]. Trypsin is a serine protease that cleaves amide bonds at the C terminus of cationic amino acids such as Arg and lysine. Pronase is a non-specific protease mixture produced in the culture supernatant of Streptomyces griseus. Ac5c, Ac5c^dOM, (αMe)Leu, and Leu peptides were incubated with trypsin or pronase for 1, 2, and 4 h, and then rate of intact peptide was evaluated by RP-HPLC using α-cyano-4-hydroxycinnamic acid (α-CHCA) as an internal standard. Leu peptide was promptly degraded by both trypsin and pronase, and reached 0% intact peptide after 4 h incubation in a similar manner to Arg peptide reported previously[24],[25]. On the other hand, approximately 80% of Ac5c, Ac5c^dOM, and (αMe)Leu peptides remained intact even after 4 h incubation. Introduction of dAAs into peptides markedly elevated resistance to protease digestion, whether or not peptides formed stable helical structures. In other words, peptides composed of only natural α-amino acids were easily degraded by proteases independently of their peptide secondary structures.
(§2) One-hundred microliters of peptide solution (10 µM) in 2.5 × 10^−6 w/v% trypsin or pronase/phosphate buffer saline (PBS) was incubated at 37 °C for 0, 1, 2, and 4 h. After each incubation time, 250 µL of 1% TFA/PBS solution was added to inactivate the proteases, and 50 µL of 1/2 diluted saturated α-CHCA solution was added as an internal standard, followed by HPLC analysis, which was performed using the above-mentioned conditions.

[3] = Resistance to protease digestion with pronase; type: in vitro ADME, Streptomyces griseus; conditions: 10 µM peptide in 2.5 × 10^−6 w/v% pronase/PBS, 37 °C, RP-HPLC, α-CHCA internal standard, read-out: intact peptide after incubation with pronase
Source text: as §1, §2

CHO-K1 cells [4] = test: Inhibition of cellular uptake by specific endocytosis inhibitors; type: cell-based; conditions: 30 min pre-incubation 37 °C, 1 µM peptide, 1 h, flow cytometry, n = 3; for uptake in presence of nystatin (caveolae-mediated endocytosis inhibitor): CHO-K1, nystatin 25 µg/mL; for uptake in presence of sucrose (clathrin-mediated endocytosis inhibitor): CHO-K1, sucrose 0.4 M
Procedure: To obtain further information on the cellular uptake mechanisms of peptides, inhibitory experiments were carried out using specific endocytosis inhibitors (amilorilde: macropinocytosis; sucrose: clathrin-mediated endocytosis; nystatin: caveolae-mediated endocytosis) against CHO-K1 cells (Fig. S5). […] (αMe)Leu peptide appeared to internalize into CHO-K1 cells via all three routes, while Ac5c peptide appeared to internalize mainly via clathrin-mediated endocytosis and caveolae-mediated endocytosis.
CHO-K1 cells were seeded on 24-well culture plates (100,000 cells/well) and incubated in 400 µL of DMEM containing 10% FBS. The medium was then replaced with fresh medium containing 10% FBS in the absence (untreated) or presence of amiloride (5 mM), sucrose (0.4 M), or nystatin (25 µg/mL), cells were pre-incubated at 37 °C for 30 min. A peptide solution was added to each well at a concentration of 1 µM. The medium was removed after 1-h incubation and subsequent operations were conducted in the same manner as cellular uptake experiments.
A c5cAc5c (aMe L e uMe)Leu untreated ami loride su cro se n ystatin
Figure S5. Effects of inhibitors on internalization of peptides against CHO-K1 cells. Error bars represent the standard deviation, n = 3. *P < 0.05, **P < 0.01.

SMILES	cellular uptake, course over incubation time (CHO-K1 cells [1])	cellular uptake, rank among the peptides containing dAAs (CHO-K1 cells [1])	cellular uptake compared with Arg peptide (CHO-K1 cells [1]; 24 h)	remaining at 4 h, 10 µM [2] [%]	remaining at 4 h, 10 µM [3] [%]	cellular uptake compared with Arg peptide (CHO-K1 cells [1]; 6 h)	uptake in presence of amiloride (macropinocytosis inhibitor) (CHO-K1 cells [4]; CHO-K1, amiloride 5 mM)	uptake in presence of nystatin (caveolae-mediated endocytosis inhibitor) (CHO-K1 cells [4])	uptake in presence of sucrose (clathrin-mediated endocytosis inhibitor) (CHO-K1 cells [4])
CO[C@H]1CC(NC(=O)[C@H](CCCNC(=N)N)NC(=O)[C@H](CCCNC(=N)N)NC(=O)C2(NC(=O)[C@H](CCCNC(=N)N)NC(=O)[C@H](CCCNC(=N)N)NC(=O)C3(NC(=O)[C@H](CCCNC(=N)N)NC(=O)[C@H](CCCNC(=N)N)NC(=O)CNC(=O)c4ccc5c(c4)C(=O)OC54c5ccc(O)cc5Oc5cc(O)ccc54)C[C@H](OC)[C@@H](OC)C3)C[C@H](OC)[C@@H](OC)C2)(C(N)=O)C[C@@H]1OC [Ac5c^dOM peptide] (5FAM-GRR[X1]RR[X1]RR[X1]-NH2)	prolonged cell-penetrating ability	the worst	higher than that of Arg peptide	~80	~80	–	–	–	–
N=C(N)NCCC[C@H](NC(=O)CNC(=O)c1ccc2c(c1)C(=O)OC21c2ccc(O)cc2Oc2cc(O)ccc21)C(=O)N[C@@H](CCCNC(=N)N)C(=O)NC1(C(=O)N[C@@H](CCCNC(=N)N)C(=O)N[C@@H](CCCNC(=N)N)C(=O)NC2(C(=O)N[C@@H](CCCNC(=N)N)C(=O)N[C@@H](CCCNC(=N)N)C(=O)NC3(C(N)=O)CCCC3)CCCC2)CCCC1 [Ac5c peptide] (5FAM-GRR[Ac5c]RR[Ac5c]RR[Ac5c]-NH2)	prolonged cell-penetrating ability	the best	higher than that of Arg peptide	~80	~80	higher than that of Arg peptide	significantly decreased	significantly decreased	significantly decreased
CC(C)C[C@](C)(NC(=O)[C@H](CCCNC(=N)N)NC(=O)[C@H](CCCNC(=N)N)NC(=O)[C@](C)(CC(C)C)NC(=O)[C@H](CCCNC(=N)N)NC(=O)[C@H](CCCNC(=N)N)NC(=O)[C@](C)(CC(C)C)NC(=O)[C@H](CCCNC(=N)N)NC(=O)[C@H](CCCNC(=N)N)NC(=O)CNC(=O)c1ccc2c(c1)C(=O)OC21c2ccc(O)cc2Oc2cc(O)ccc21)C(N)=O [(αMe)Leu peptide] (5FAM-GRR[αMeL]RR[αMeL]RR[αMeL]-NH2)	prolonged cell-penetrating ability	–	higher than that of Arg peptide	~80	~80	higher than that of Arg peptide	–	significantly decreased	significantly decreased

From PMC6362038, “Secondary structures and cell-penetrating abilities of arginine-rich peptide foldamers” (Scientific Reports, 2019)
